Test results published in patent US20120004205A1, “IL-13 INDUCED GENE SIGNATURE FOR EOSINOPHILIC ESOPHAGITIS” (Cincinnati Children's Hospital Medical Center, priority 2008, published 2012).

Columns and labels:
[1] = test system: TE-1 esophageal cell line; assay: Eotaxin-3 mRNA expression after IL-13 stimulation, real-time PCR; assay type: cell-based, human; settings: TE-1 cells, IL-13 100 ng/mL
[2] = test system: TE-6 esophageal cell line; assay: as above; assay type: cell-based, human; settings: TE-6 cells, IL-13 100 ng/mL
[3] = test system: TE-7 esophageal cell line; assay: as above; assay type: cell-based, human; settings: TE-7 cells, IL-13 100 ng/mL
[4] = test system: TE-13 esophageal cell line; assay: as above; assay type: cell-based, human; settings: TE-13 cells, IL-13 100 ng/mL
[5] = test system: TE-13 cells; assay: Eotaxin-3 protein released in culture supernatant, ELISA; assay type: cell-based, human; settings: IL-13 100 ng/mL for 24 hours
Procedure: (§1) Eotaxin-1, 2 and 3 Duo set ELISA were performed according to the manufacturer's instruction (R&D) and as previously described Blanchard, C. et al., (2006) J. Clin. Invest. 116: 536-547. IL-13 Quantikine® Kit (R&D) was used to quantify IL-13 protein levels. The detection limits were respectively […] for eotaxins-1, -2, -3 and IL-13, respectively. The optical density of each well was read at a wavelength of 450 nm.

[6] = test system: TE-7 cells; assay: as above; assay type: cell-based, human; settings: IL-13 100 ng/mL for 24 hours
Procedure: as §1

[7] = test system: human eotaxin-3 promoter; assay: Eotaxin-3 promoter luciferase reporter in transfected TE-7 cells, IL-13 stimulation; assay type: cell-based
Procedure: (§2) Plasmids were constructed or obtained as described before Blanchard, C. et al., (2005) Int. J. Biochem Cell Biol. 37: 2559-2573. Briefly, plasmid denoted P800, P500 and P100 contained respectively the first 800 by 500 by or 100 by of the human eotaxin-3 gene promoter (pEO3) subcloned into KpnI/HindIII-digested pGL3-Basic (Promega) as previously described Blanchard, C. et al., (2005) Int. J. Biochem. Cell Biol. 37: […]. Directed mutagenesis of the eotaxin-3 promoter was performed using Quickchange Kit from Stratagene according to the manufacturer's instructions using 2 primer sets: (first set) 5′-CCCAACCACAAGAAggtacc[…]-3′ and 5′-[…] ggtacc TTCTGTGGTTGGG-3′ which include a KpnI restriction site in the -89 TTCtctcgGAA STAT6 consensus site and (second set) 5′-GTAACTTAGTTCAG ggatcc […]-3′ and 5′-[…] ggatcc CTGAACTAAGTTAC-3′ which include a […] restriction site in the -698 TTCactgGAA STAT6 consensus site. The STAT6:ER plasmid was constructed in the pCDNA3 plasmid as previously described Kamogawa, Y. et al., (1998) J. Immunol. 161:1074-1077.
Approximately 10^4 TE-7 cells per well (24 well plate) were plated on day 1 and transfected by Lipofectamine™ reagent on day 2. Briefly, […] of reporter plasmids were mixed with 3 μl of Lipofectamine™ reagent in […] of serum-free RPMI medium. In all transfection experiments, a plasmid with a Renilla luciferase reporter gene under the control of a thymidine kinase promoter (pHRL-TK, […]) was used as an internal control. In co-transfection experiments with DNSTAT6 or pCDNA3-STAT6:ER (ER-estrogen receptor) plasmids, the empty vectors pCEFL HA or pCDNA3 were added to each set of transfections, respectively, to ensure that each well received the same amount of DNA. Complete medium (0.5 mL) was added and cells were incubated for 48 h to 72 h. The transfection mixture was then replaced with fresh complete medium for an additional 12 h period before cytokine treatment. […] Cells were then lysed and the Firefly and Renilla luciferase activities were measured in a luminometor (Microlite, Dynatec Laboratories, Inc) using the Dual Luciferase Reporter assay system (Promega) in accordance with the manufacturer's instructions.
Immunol. 42: 295-303; Hoeck, J. and Woisetschlager, M., (2001) J. Immunol. 167: 3216-3222; Yuan, Q. et al., (2006) Eur. J. Immunol. 36: 2700-2714. To determine the STAT6 element or elements involved in the eotaxin-3 stimulation observed in esophageal cell lines, the TE-7 cell line was transiently transfected with the full-length eotaxin luciferase reporter plasmid and truncated versions (FIG. 3). […] The TE-7 cell line was transfected with truncated promoter constructs or with a full-length promoter containing specific mutations within the STAT6 binding sites to map the relevant cis-acting promoter sequences (FIG. 3B).

[8] = test system: TE-7 cells; assay: Eotaxin-3 mRNA stability with actinomycin-D; assay type: cell-based, human
[9] = test system: primary esophageal keratinocytes from EE patients; assay: IL-13-induced eotaxin expression ex vivo, real-time PCR; assay type: cell-based, human
Description: (§3) Briefly, biopsies were digested with trypsin twice.

[10] = test system: primary esophageal keratinocytes from EE patients; assay: Eotaxin-3 protein release into supernatant ex vivo, ELISA; assay type: cell-based, human; settings: IL-13 100 ng/mL
Procedure: as §3, §1

[11] = test system: primary esophageal epithelial cells from patients with EE; assay: Global transcript-expression profile (microarray) of IL-13-stimulated primary cells; assay type: cell-based, human
Procedure: as §3
For each patient, one distal esophageal mucosal biopsy sample was immersed in RNA, later RNA stabilization reagent (Qiagen) and stored at 4 C. for <15 days. Total RNA was extracted using the RNAeasy Mini Kit (Qiagen) according to the manufacturer's recommendations. Hybridization to DNA microarray was performed by the MicroarrayCore at Cincinnati Children's Hospital Medical Center, as previously reported Blanchard, C. et al., (2006) J. Clin. Invest. 116: 536-547. The genome wide human Affymetrix U133A plus 2.0 Genechip® was used, and gene transcript levels were determined using algorithms in the Microarray Analysis Suite and GeneSpring software (Silicon Genetics) as previously described Blanchard, C. et al., (2006) J. Clin. Invest. 116: 536-547. […] Response to therapy was defined as <1 eosinophils/high power field (hpf) and no epithelial cell hyperplasia as described herein.
The list of differentially expressed transcripts was subjected to gene ontology analysis using DAVID (database for annotation, visualization and integrated discovery) and EASE (expression analysis systematic explorer), a web-based (hyper text transfer protocol davidabccncifcrfgov) application that allows access to a relational database of functional annotations.
Primary esophageal epithelial cells from the esophagi of patients with EE were cultured and stimulated with 100 ng/mL IL-13 for 48 hours to identify IL-13-induced esophageal epithelial genes. The mRNA was subjected to global transcript-expression profile analysis and normalized pair wise to unstimulated controls. Genes were filtered to fold change in biopsy specimens from patients with EE compared with those from healthy patients and IL-13 stimulated epithelial cells. A highly significant positive correlation (P<0.0001, Spearman) between modified genes in biopsy specimens from patients with EE and in IL-13-stimulated keratinocytes was observed (FIG. 4C). […] Blanchard, C. et al., (2006) J. Clin. Invest.

[12] = test system: STAT6:ER; assay: Eotaxin-3 promoter luciferase reporter in TE-7 cells cotransfected with STAT6:ER; assay type: cell-based, human; settings: TE-7 cotransfected with eotaxin-3 promoter construct and STAT6:ER, within 24 hours
Procedure: as §2, with “The STAT6:ER plasmid was constructed in the pCDNA3 plasmid as previously described Kamogawa, Y. et al., (1998) J. Immunol. 161:1074-1077.” left out
Approximately 10^4 TE-7 cells per well (24 well plate) were plated on day 1 and transfected by Lipofectamine™ reagent on day 2. […] Cells were then lysed and the Firefly and Renilla luciferase activities were measured in a luminometor (Microlite, Dynatec Laboratories, Inc) using the Dual Luciferase Reporter assay system (Promega) in accordance with the manufacturer's instructions. […]

[13] = IL-13 100 ng/mL, 48 hours, P<0.05

With “IL-13: cytokine Interleukin 13 (Preprotech) added to culture media to stimulate esophageal cells” as the compound, how does the “Eotaxin-3 mRNA expression increase” value [1] read?
The value was 4 fold.

What about the “Eotaxin-3 mRNA expression increase” value [2] of the same compound?
Its value is 8 fold.

And the “Eotaxin-3 mRNA expression increase” value [3]?
The value was 77 fold.

And the “Eotaxin-3 mRNA expression increase” value [4]?
The value was 1007 fold.

What about the “eotaxin-3 released in the supernatant” value [5] of the same compound?
The value was 0.55 ± 0.37 µg/mL.

What about the “eotaxin-3 released in the supernatant” value [6] of the same compound?
Its value is 2.5 ± 0.7 µg/mL.

What about the “increase of luciferase activity, full-length reporter plasmid” value ([7]; TE-7, IL-13 10 ng/mL) of the same compound?
The value was 2.7+/−0.8 fold.

And the “increase of luciferase activity, full-length reporter plasmid” value ([7]; TE-7, IL-13 100 ng/mL)?
Its value is 10.8+/−2.2 fold.

What about the “IL-13-induced luciferase activity, construct with mutated -89 binding site” value ([7]; TE-7, after IL-13 stimulation) of the same compound?
The value was “no increase in luciferase activity”.

And the “IL-13-induced promoter activity, construct P100 (truncated proximal STAT6 site)” value ([7]; TE-7, after IL-13 stimulation)?
The value was “no activity”.

What about the “IL-13-induced promoter activity, promoter containing 800 or 500 bp” value ([7]; TE-7, after IL-13 stimulation) of the same compound?
Its value is “full IL-13-induced activity”.

What about the “stability of eotaxin-3 mRNA, IL-13 treated versus non-treated” value [8] of the same compound?
Its value is “not significantly different”.

What about the “increase of eotaxin-3 mRNA expression” value ([9]; 48 hours after 10 ng/mL IL-13) of the same compound?
The value was 1000 fold.

What about the “increase of eotaxin-3 mRNA expression” value ([9]; 48 hours after 100 ng/mL IL-13) of the same compound?
Its value is 10.000 fold.

And the “release of eotaxin-3 protein into the supernatant” value [10]?
The value was 6.03 ± 0.8 ng/mL.

What about the “genes downregulated by 2-fold or greater” value ([11]; IL-13 100 ng/mL, 48 hours) of the same compound?
Its value is 116 genes.

And the “genes downregulated by more than 1.5-fold” value ([11]; IL-13 100 ng/mL, 48 hours)?
The value was 553 genes.

What about the “genes modified by 2-fold or greater” value ([11]; IL-13 100 ng/mL, 48 hours) of the same compound?
Its value is 371 genes.

What about the “genes modified by more than 1.5-fold” value ([11]; IL-13 100 ng/mL, 48 hours) of the same compound?
Its value is 1333 genes.

What about the “genes significantly modified compared with unstimulated cells (P<0.01)” value ([11]; IL-13 100 ng/mL, 48 hours) of the same compound?
The value was 952 genes.

And the “genes significantly modified compared with unstimulated cells (P<0.05)” value ([11]; IL-13 100 ng/mL, 48 hours)?
Its value is 4698 genes.

And the “genes upregulated by 2-fold or greater” value ([11]; IL-13 100 ng/mL, 48 hours)?
Its value is 255 genes.

What about the “genes upregulated by more than 1.5-fold” value ([11]; IL-13 100 ng/mL, 48 hours) of the same compound?
The value was 780 genes.

What about the “IL-13-induced genes overlapping with the EE transcriptome” value [11, 13] of the same compound?
Its value is 126 genes.

What about the “share of the EE transcriptome overlapped by IL-13-induced genes” value [11, 13] of the same compound?
The value was 22%.

What about the “involucrin downregulation (microarray)” value ([11]; IL-13-stimulated cells) of the same compound?
Its value is 4.8 fold.

What about the “TNFAIP6 expression (microarray)” value ([11]; IL-13-stimulated keratinocytes) of the same compound?
Its value is “highly overexpressed”.

And the “cadherin-26 upregulation (microarray)” value ([11]; IL-13-stimulated keratinocytes)?
The value was 50 fold.

And the “eotaxin-3 upregulation (microarray)” value ([11]; IL-13-stimulated keratinocytes)?
Its value is 279 fold.

And the “eotaxin-1 and eotaxin-2 expression (microarray)” value ([11]; IL-13-treated primary keratinocyte cultures)?
The value was “not overexpressed”.

Which “induction of eotaxin-3 promoter luciferase activity” value [12] does the source give for CC/C(=C(\c1ccc(O)cc1)c1ccc(OCCN(C)C)cc1)c1ccccc1 [4-hydroxytamoxifene] here?
The value was “significant (P<0.01) induction”.
